# Measurements reported in patent US20230148626A1, “PROTEIN-BASED FORMING AGENT, PREPARATION METHOD AND APPLICATION THEREOF” (NORTHEAST AGRICULTURAL UNIVERSITY, priority 2021, published 2023).
# Key:
# [1] = pH of the original solution of GA; type: physicochemical
# [2] = target: T1, α-La (Bos taurus, UniProt P00711); test: Binding isotherm: number of GA molecules bound per α-La molecule (endogenous fluorescence); conditions: α-La 20 µmol/L, 25 °C
# T1 construct: purchased Davisco Foods International
# T1 sequence (P00711 20-142): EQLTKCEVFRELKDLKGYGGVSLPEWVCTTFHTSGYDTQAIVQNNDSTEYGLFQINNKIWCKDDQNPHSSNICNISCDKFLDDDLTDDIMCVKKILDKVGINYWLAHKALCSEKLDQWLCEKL
# Experimental: Determination of the number of molecules of glycyrrhizic acid binding α-La: under 25 degree Celsius (°C) and fixed concentration of α-La of 20 µmol/L, adjusting the concentration of GA (0 - 15.0 mM) to obtain a α-La-GA mixed solution; calculating an average value (v) of each protein molecule bound to surfactant molecules by measuring the endogenous fluorescence (λex = 295 nm) of α-La-GA mixed solution, and obtaining a binding isotherm from the change of the average number with the total concentration of GA as shown in FIG. 2.
# Binding isotherm allows a good understanding of protein-glycyrrhizic acid binding behavior, with the average value (v) of glycyrrhizic acid molecules bound per protein molecule as the response value being used as a criterion for determination. […] In the region II of 0.02<CGA<1.00 mM, the average value v of bound GA molecules increases slowly but obviously, where the maximum fluorescence intensity is decreased. In the region III between 1.00 mM and 15.00 mM, a large number of synergistic binding appears with the formation of protein aggregates. Moreover, the values v under different pH conditions vary greatly in regions II and III (see Table 1). Acidic conditions can induce more GA molecules to bind with α-La in the process of non-cooperative binding and cooperative binding, which may be due to the fact that the structure of α-La is unfolded under acidic conditions, prompting more hydrophobic groups to be exposed, thus making α-La binding with more GA molecules.
# [3] = target: T1, α-La; test: Aggregation of GA in the presence of α-La (ANS fluorescence, CAC breakpoint); type: physicochemical; conditions: in the presence of α-La and ANS
# Experimental: Measurement of aggregation: adding 8-Anilino-1-naphthalenesulfonic acid (ANS) solution (80 microliter (µL), 8 mmol/L) into 4 milliliter (mL) of the mixed solutions prepared in Embodiment 1 and Embodiment 2, respectively, and standing the solutions in the dark for 15 min; measuring the aggregation with a 1 centimeter (cm) light path cuvette, setting the excitation/emission slit of the instrument to 5.0/2.5 nano-meter (nm), the excitation wavelength at 355 nm, and recording the emission spectrum as 360 - 600 nm; recording the value of the most fluorescent intensity.
# The threshold concentration required to form small molecular aggregates on the surface of protein is called critical aggregation concentration (CAC), which is usually lower than critical micelle concentration (CMC). […] For example, the minimum value of fluorescence of α-La is recorded under neutral condition and 1.0 mM GA, while the minimum value is observed after adding 2.0 mM GA in acid solution; this is because the pH of the original solution of GA is 4.3, while the carboxylate of GA is protonated and its electrostatic charge is shielded when the pH is 2.5, which leads to the decrease of repulsion between GA molecules and promotes self-assembly of molecules to form aggregates; GA is easier to polymerize under acidic conditions when the concentration of α-La is constant, that is, it has a smaller CAC.
smiles,measurement,setting,value
"CC1(C)[C@@H](O[C@H]2O[C@H](C(=O)O)[C@@H](O)[C@H](O)[C@H]2O[C@@H]2O[C@H](C(=O)O)[C@@H](O)[C@H](O)[C@H]2O)CC[C@]2(C)[C@H]3C(=O)C=C4[C@@H]5C[C@@](C)(C(=O)O)CC[C@]5(C)CC[C@@]4(C)[C@]3(C)CC[C@@H]12 [GA, glycyrrhizic acid]",pH of the original solution of GA,[1],4.3
same,average value v of GA molecules bound per protein molecule,"[2]; pH 2.5, characteristic area I, CGA 0 - 0.20",0 - 8.96
same,average value v of GA molecules bound per protein molecule,"[2]; pH 2.5, characteristic area II, CGA 0.20 - 1.00",8.96 - 48.95
same,average value v of GA molecules bound per protein molecule,"[2]; pH 7.0, characteristic area I, CGA 0 - 0.20",0 - 5.22
same,average value v of GA molecules bound per protein molecule,"[2]; pH 7.0, characteristic area II, CGA 0.20-1.00",5.22 - 39.49
same,average value v of GA molecules bound per protein molecule,"[2]; pH 7.0, characteristic area III, CGA 1.00-15.00",39.49 - 998.19
same,"GA concentration at minimum value of fluorescence of α-La (breakpoint, CAC)",[3]; acid solution,2.0 mM
same,"GA concentration at minimum value of fluorescence of α-La (breakpoint, CAC)",[3]; neutral condition,1.0 mM
